Laboratory results: US20240376098A1, “METHODS OF TREATMENT USING BCN057, BCN077 AND ANALOGS” (BCN Biosciences L.L.C., priority 2021, published 2024)

What was measured:
PTEN = assay: Western blot of PTEN protein expression in Panc-1 cells; format: cell-based, human; conditions: 10 μM, 20 minutes to 24 hours
Description: Western Blot: Cells were harvested and lysed in cell lysis buffer on ice for 15 minutes and the lysate was centrifuged at 13,000 rpm at 4° C. for 10 minutes. The supernatant was transferred into a new tube for BCA protein quantification assay (Thermo Fisher Scientific) and the samples were normalized. 3× loading buffer (Cell Signaling) was added the protein sample and boiled for 5 minutes. The samples were used for SDS-PAGE analysis and transferred to nitrocellulose membrane. The membrane was blocked with 5% BSA at room temperature for 1 hour and incubated with primary antibody at 4° C. overnight. The membrane was washed with 1×TBST 5 minutes for 3 times and incubated with horseradish peroxidase-conjugated secondary antibody for 1 hour at room temperature. The protein was visualized by SuperSignal West Pico Stable Peroxide Solution (Thermo Fisher Scientific). The blot was visualized by chemiluminescence using a BioRad Versadoc Imaging System. In KRAS dependent tumors, c-Jun acts to suppress Phosphatase and tensin homolog (PTEN) expression at the promoter level and that suppression of PTEN expression is essential for anti-apoptosis and cellular transformation by oncogenic RAS. Thus, we investigated PTEN expression levels in response to BCN057. […] FIG. 4A is a western blot of Phospho-c-Jun (T-91/93). […] Phosphorylation of c-Jun at T-91/93 is known to induce apoptosis. […]

[1] = system: Bax, BCl-2, Akt-1 and Caspase-3 in Panc-1 cells; assay: qPCR of pro apoptosis and anti-apoptosis markers; format: cell-based, human; conditions: 1-hour post treatment
Excerpt: FIG. 2C is a histogram of the results of qPCR analysis of pro apoptosis and anti-apoptosis markers in Panc-1 cells.

[2] = system: irradiated mouse T-lymphocytes; assay: In vitro viability assay on irradiated T-lymphocytes; format: cell-based; conditions: T-lymphocyte
Description: FIG. 7A is a western blot showing PD-1 expression on human T-lymphocytes co-cultured with Panc-1 cells with no drug (vehicle) or 1, 6 and 12 hours with BCN057. FIG. 7B is a graph showing that the inhibition of GSK3b induces survival of Lymphocytes when exposed to radiation.
FIG. 8 is western blot showing PDL-1 expression (red arrow) on Panc-1 cells co cultured with human T-lymphocytes with no drug (vehicle) or 2.5, 5, 7.5 and 10 hrs. with BCN057. […] In a separate study using mouse T-lymphocytes, 2Gy radiation was used to induce apoptosis with increasing amounts of BCN057.

Panc-1 cells = assay: ATPLite luminescence viability assay on Panc-1 cells; format: cell-based, human
Description: Viability Assay. To determine the effects of BCN 057 in comparison and combination with irinotecan, Oxaloplatin and 5Fu, the ATPLite Luminescence Assay System was used according to manufacturer's instructions. On day 1, 3,000 Panc-1 cells per well were seeded in 96-well white, opaque sterile tissue culture treated microplates and incubated for 24 hours in complete medium at 37° C., 5% CO2. On day 2, the media was exchanged with media containing various combinations of 10 uM BCN 057, 25 μM 5-Fu, 75 μM Oxaloplatin, and 50 μM Irinotecan and incubated at 37° C., 5% CO2. On day 3,4, and 5, the ATP Lite Assay was performed according to manufacturer's instructions for the 24, 48, and 72 hr timepoints. Unless otherwise stated, values were represented as a percent of the control which is the vehicle for each drug. No difference was found in viability between any control vehicle.
Statistics. The results are shown by calculating the averages (±Standard deviation) in comparison to untreated controls with the indicated (n). The Percent Viability was calculated by dividing the average of each condition by the average of the untreated control (vehicle). Statistical analysis was performed in excel.
The first example entailed studying the effect of BCN057 in pancreatic cancer cells. Panc-1 cells, a G12D KRAS mutant cell line was treated with BCN057 for 48 hours.
All data points are n=5. Control (ND) received no drug and BCN057 at 2, 5, 10, and 20 μM final concentration. The Percent viability was calculated by dividing the average value for each condition by the average value of the control cells (V) at each time point.
Further, these doses span the concentrations found in plasma during efficacy studies in rodents. Subsequently, microscope images appeared to show cell blebbing and fragmentation shortly after application of BCN057 indicating possible apoptosis. […] Blebbing and cell fragmentation was noted within 20 min of incubation with drug (as shown with the arrows). Cell fragmentation was seen between 20-30 minutes after exposure to the drug.
The anti-apoptotic phenotype of KRAS is associated with significant resistance to chemotherapy. Thus, to examine whether BCN057 enhances cytotoxic chemotherapeutic agents such as 5-Fluorouracil, also known as 5FU, Panc1 cells were pre-treated with 5FU as reported and incubated with BCN057. […] The effect followed a dose dependent response for BCN057 and was consistent over 24, 48 and 72 hrs after BN057 treatment (24 and 48 hrs not shown).
All data points are n=5. Control (ND) received no drugs. Study groups include 5FU (50 μM), 057 (BCN057 at 2, 5, 10, and 20 μM or 5FU+BCN057 (BCN057 at 2, 5, 10, and 20 μM in combination with 5FU at 50 μM). The Percent viability was calculated by dividing the average value for each condition by the average value of the control cells (V) with standard deviation at each time point
Combined chemotherapy and cytotoxicity: Other cytotoxic drugs commonly used in the treatment of pancreatic or colorectal cancer were then examined in similar fashion such as those within FOLFIRINOX such as 5FU, Irinotecan and Oxaliplatin in combination equivalent doses of BCN057 over 24, 48 and 72 hours.
FIG. 6 is a histogram showing the cytotoxicity of Oxaliplatin and Irinotecan, individually or in combination with 5FU and BCN057 on Panc-1 cells. Cells were incubated with Oxaliplatin, Irinotecan and 5FU with concentrations at 10 μM each and BCN057 (057) also at 10 μM with n=4 for all assays.

[3] = Solubility in aqueous formulations; format: physicochemical; conditions: 30 wt % Captisol (SBE-beta-CD) and 100 mM MSA

IC50 (Panc-1 cells; Homo sapiens, Panc-1, 72 hours post application, 2, 5, 10, 20 μM, Quest Graph IC50 Calculator): 1.33 µM
Compound: COc1ccc2cc(-c3nc4ccc(C)cn4c3NCc3ccco3)c(=O)[nH]c2c1 [BCN057, 3-[(Furan-2-ylmethyl)-amino]-2-(7-methoxy-2-oxo-1,2-dihydro-quinolin-3-yl)-6-methyl-imidazo[1,2-a]pyridin-1-ium]
PTEN protein expression (PTEN): increased expression up to 1 hr of PTEN protein
Akt-1 expression [1]: did not affect
Bax gene expression [1]: induces expression
Bcl2 gene expression [1]: inhibited
Caspase-3 expression [1]: did not affect
EC50 ([2]; light or radiation study, viability of irradiated mouse T-lymphocytes): 5.34 µM
EC50 ([2]; preservation of mouse T-lymphocytes, 2Gy radiation): 5.34 µM
Panc1 cells viability (Panc-1 cells; 48 hours, increasing doses of BCN057): significant decrease in Panc1 cells viability
Cytotoxicity of combination of 5FU and BCN057 (Panc-1 cells; Panc1, 5FU 50 μM plus BCN057 2-20 μM, 24, 48 and 72 hrs): greater cytotoxicity than 5FU alone
Tumor viability on addition of BCN057 to Oxaliplatin, Irinotecan and 5FU (Panc-1 cells; Panc-1, 10 μM each, over 72 hrs): general trend of decreasing tumor viability
cytotoxicity toward the cells in the dose response curve (Panc-1 cells; Panc-1, 2-20 μM): potent cytotoxicity toward the cells at all concentrations
Sensitivity to cytotoxic effect of 5FU, Irinotecan and Oxaliplatin in combination with BCN057 (Panc-1 cells; Panc-1, 24, 48 and 72 hours, all time points except Irinotecan and oxaliplatin at 72 hours): statistically significant sensitivity
Solubility [3]: excellent solubility at up to pH 4.1 or higher
